Test results from paper PMC4503722, “Novel Phenotypic Outcomes Identified for a Public Collection of Approved Drugs from a Publicly Accessible Panel of Assays” (PLoS ONE, 2015).
Like-named read-outs stand apart in the source and are kept apart here.

Legend:
[1] = test system: endothelial tube formation in co-cultures of ECFCs and ADSCs treated with VEGF; experiment: cells; format: cell-based, human
SW480 = experiment: cells; format: cell-based
[2] = test system: ECFC/ADSC co-culture cell nuclei number
RKO = experiment: cells; format: cell-based
DLD-1 = experiment: cells; format: cell-based
HeLa cells = experiment: cells; format: cell-based;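 for Hela CellCycMod PI 4N summarized IC50: value tracks stimulation of 4N DNA content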
SNU-C1 = experiment: cells; format: cell-based
HT-29 = experiment: cells; format: cell-based
Colo320 = experiment: cells; format: cell-based
HCT116 = experiment: cells; format: cell-based
[3] = test system: HCT116 cells treated with a GSK3β inhibitor; experiment: cells; format: cell-based; details: for IC50/EC50, GSK3b inh pretreated_Viability ATP HCT116 (assay number 26): GSK3b inh pretreated
[4] = assay number 24, concentration response
[5] = assay number 29, concentration response
[6] = assay number 23, concentration response
[7] = assay number 30, concentration response
[8] = assay number 28, concentration response
[9] = assay number 27, concentration response
[10] = assay number 25, basal, concentration response
[11] = assay number 26, GSK3b inhibitor pretreated, concentration response

| Compound | IC50/EC50, VEGF_ADSC\ECFC Angio CD31 TubeArea (assay number 2) [1] | IC50/EC50, Basal_Viability ATP SW480 (assay number 24) (SW480; basal) | IC50/EC50, VEGF_ADSC\ECFC Angio Hoechst NucArea (assay number 3) [2] | IC50/EC50, Basal_Viability ATP RKO (assay number 29) (RKO; basal) | IC50/EC50, Basal_Viability ATP DLD-1 (assay number 23) (DLD-1; basal) | IC50/EC50, Hela CellCycMod PI 2N (assay number 14) (HeLa cells; 2N) | IC50/EC50, Hela CellCycMod PI 4N (assay number 16) (HeLa cells; 4N) | IC50/EC50, Hela CellCycMod PI Cell Number (assay number 18) (HeLa cells) | IC50/EC50, Hela CellCycMod PI MI (assay number 17) (HeLa cells; MI) | IC50/EC50, Hela CellCycMod PI S Phase (assay number 15) (HeLa cells) | VEGF_ADSC\ECFC Angio CD31 TubeArea IC50/EC50 [1] | VEGF_ADSC\ECFC Angio Hoechst NucArea IC50/EC50 [2] | Basal_Viability ATP SW480 IC50/EC50 (SW480; [4]) | Basal_Viability ATP RKO IC50/EC50 (RKO; [5]) | Basal_Viability ATP DLD-1 IC50/EC50 (DLD-1; [6]) | Basal_Viability ATP SNU-C1 IC50/EC50 (SNU-C1; [7]) | Basal_Viability ATP HT-29 IC50/EC50 (HT-29; [8]) | Basal_Viability ATP Colo 320 IC50/EC50 (Colo320; [9]) | Basal_Viability ATP HCT116 IC50/EC50 (HCT116; [10]) | GSK3b inh pretreated_Viability ATP HCT116 IC50/EC50 [3, 11] | further results |
| --- | --- | --- | --- | --- | --- | --- | --- | --- | --- | --- | --- | --- | --- | --- | --- | --- | --- | --- | --- | --- | --- |
| Cc1cc(N)c2ccccc2[n+]1CCCCCCCCCC[n+]1c(C)cc(N)c2ccccc21 [NCGC00015339-07] | > 10 µM | 3.8338 µM | > 10 µM | 2.4541 µM | 5.7172 µM | > 10 µM | > 10 µM | > 10 µM | > 10 µM | > 10 µM | – | – | – | – | – | – | – | – | – | – | IC50/EC50, Basal_Viability ATP SNU-C1 (assay number 30) (SNU-C1; basal): 1.2926 µM; IC50/EC50, Basal_Viability ATP HT-29 (assay number 28) (HT-29; basal): > 20 µM; IC50/EC50, Basal_Viability ATP Colo 320 (assay number 27) (Colo320; basal): 15.8701 µM; IC50/EC50, Basal_Viability ATP HCT116 (assay number 25) (HCT116; basal): > 20 µM; IC50/EC50, GSK3b inh pretreated_Viability ATP HCT116 (assay number 26) [3]: > 20 µM |
| O=C1C2CC=CCC2C(=O)N1SC(Cl)(Cl)Cl (centres unmarked) [NCGC00091034-10] | – | – | – | – | – | – | – | – | – | – | – | – | – | – | – | – | – | – | – | – | IC50 ([1]; read-out: VEGF_ADSC\ECFC Angio CD31 TubeArea summarized IC50): > 10 µM; IC50 (SW480; assay number 24, basal, read-out: Basal_Viability ATP SW480 summarized IC50): 0.0788 µM; IC50 ([2]; read-out: VEGF_ADSC\ECFC Angio Hoechst NucArea summarized IC50): > 10 µM; IC50 (RKO; assay number 29, basal, read-out: Basal_Viability ATP RKO summarized IC50): 0.402 µM; IC50 (DLD-1; assay number 23, basal, read-out: Basal_Viability ATP DLD-1 summarized IC50): 0.348 µM; IC50 (HeLa cells; assay number 14, 2N, read-out: Hela CellCycMod PI 2N summarized IC50): > 10 µM; IC50 (HeLa cells; assay number 15, S phase, read-out: Hela CellCycMod PI S Phase summarized IC50): > 10 µM; IC50 (HeLa cells; assay number 16, 4N, read-out: Hela CellCycMod PI 4N summarized IC50): > 10 µM; IC50 (HeLa cells; assay number 17, MI, read-out: Hela CellCycMod PI MI summarized IC50): 6.14 µM; IC50 (HeLa cells; assay number 18, cell number, read-out: Hela CellCycMod PI Cell Number summarized IC50): 1.79 µM; IC50 (SNU-C1; assay number 30, basal, read-out: Basal_Viability ATP SNU-C1 summarized IC50): 0.903 µM; IC50 (HT-29; assay number 28, basal, read-out: Basal_Viability ATP HT-29 summarized IC50): 0.5 µM; IC50 (Colo320; assay number 27, basal, read-out: Basal_Viability ATP Colo 320 summarized IC50): 0.306 µM; IC50 (HCT116; assay number 25, basal, read-out: Basal_Viability ATP HCT116 summarized IC50): 1.76 µM; IC50 ([3]; assay number 26, GSK3b inhibitor pretreated, read-out: GSK3b inh pretreated_Viability ATP HCT116 summarized IC50): 2.21 µM |
| OC[C@H]1O[C@@H](n2cnc3c(=S)nc[nH]c32)[C@H](O)[C@@H]1O [NCGC00096122-05] | 1.4206 µM | 0.02867 µM | > 10 µM | 0.01437 µM | 0.06302 µM | > 10 µM | > 10 µM | > 10 µM | > 10 µM | > 10 µM | – | – | – | – | – | – | – | – | – | – | IC50/EC50, Basal_Viability ATP SNU-C1 (assay number 30) (SNU-C1; basal): 2.185 µM; IC50/EC50, Basal_Viability ATP HT-29 (assay number 28) (HT-29; basal): 0.1181 µM; IC50/EC50, Basal_Viability ATP Colo 320 (assay number 27) (Colo320; basal): 1.064 µM; IC50/EC50, Basal_Viability ATP HCT116 (assay number 25) (HCT116; basal): 0.02858 µM; IC50/EC50, GSK3b inh pretreated_Viability ATP HCT116 (assay number 26) [3]: 0.5044 µM |
| O=C(Nc1ccc(Br)cc1)c1cc(Br)cc(Br)c1O [NCGC00159476-09] | 1.8138 µM | 0.001 µM | > 10 µM | 0.003 µM | 0.001 µM | > 10 µM | > 10 µM | > 10 µM | > 10 µM | > 10 µM | – | – | – | – | – | – | – | – | – | – | IC50/EC50, Basal_Viability ATP SNU-C1 (assay number 30) (SNU-C1; basal): 0.001 µM; IC50/EC50, Basal_Viability ATP HT-29 (assay number 28) (HT-29; basal): 0.001 µM; IC50/EC50, Basal_Viability ATP Colo 320 (assay number 27) (Colo320; basal): 0.003 µM; IC50/EC50, Basal_Viability ATP HCT116 (assay number 25) (HCT116; basal): 0.003 µM; IC50/EC50, GSK3b inh pretreated_Viability ATP HCT116 (assay number 26) [3]: 0.001 µM |
| CC(C)=CCOc1ccc(/C=C/C(=O)c2ccc(OCC=C(C)C)cc2OCC(=O)O)cc1 [NCGC00159481-03] | – | – | – | – | – | – | – | – | – | – | > 10 µM | > 10 µM | – | – | – | – | – | – | – | – | Basal_Viability ATP SW480 IC50/EC50 (SW480): 2.9193 µM; Basal_Viability ATP RKO IC50/EC50 (RKO): 5.5335 µM; Basal_Viability ATP DLD-1 IC50/EC50 (DLD-1): 5.3614 µM; Hela CellCycMod PI 2N IC50/EC50 (HeLa cells): > 10 µM; Hela CellCycMod PI 4N IC50/EC50 (HeLa cells): > 10 µM; Hela CellCycMod PI Cell Number IC50/EC50 (HeLa cells): > 10 µM; Hela CellCycMod PI MI IC50/EC50 (HeLa cells): > 10 µM; Hela CellCycMod PI S Phase IC50/EC50 (HeLa cells): > 10 µM; Basal_Viability ATP SNU-C1 IC50/EC50 (SNU-C1): 7.4428 µM; Basal_Viability ATP HT-29 IC50/EC50 (HT-29): 5.3973 µM; Basal_Viability ATP Colo 320 IC50/EC50 (Colo320): 1.5527 µM; Basal_Viability ATP HCT116 IC50/EC50 (HCT116): > 6.667 µM; GSK3b inh pretreated_Viability ATP HCT116 IC50/EC50 [3]: 3.0351 µM |
| CCCCC[C@@H](O)CC[C@H]1[C@@H]2Cc3cccc(OCC(=O)O)c3C[C@@H]2C[C@@H]1O [NCGC00319020-01] | – | – | – | – | – | – | – | – | – | – | > 10 µM | > 10 µM | – | – | – | – | – | – | – | – | Basal_Viability ATP SW480 IC50/EC50 (SW480; assay number 24, basal): > 20 µM; Basal_Viability ATP RKO IC50/EC50 (RKO; assay number 29, basal): > 20 µM; Basal_Viability ATP DLD-1 IC50/EC50 (DLD-1; assay number 23, basal): > 20 µM; Basal_Viability ATP SNU-C1 IC50/EC50 (SNU-C1; assay number 30, basal): > 20 µM; Basal_Viability ATP HT-29 IC50/EC50 (HT-29; assay number 28, basal): > 20 µM; Basal_Viability ATP Colo 320 IC50/EC50 (Colo320; assay number 27, basal): > 20 µM; Basal_Viability ATP HCT116 IC50/EC50 (HCT116; assay number 25, basal): > 20 µM; GSK3b inh pretreated_Viability ATP HCT116 IC50/EC50 ([3]; assay number 26, GSK3b inhibitor pretreated): > 20 µM |
| CC=CC1C(C(=O)OCc2c(F)c(F)c(COC)c(F)c2F)C1(C)C (centres unmarked) [NCGC00319021-01] | – | – | – | – | – | – | – | – | – | – | > 10 µM | > 10 µM | > 20 µM | > 20 µM | > 20 µM | > 20 µM | > 20 µM | > 20 µM | > 20 µM | > 20 µM | – |
| COC(=O)CCCCC(CCSS/C(CCO)=C(\C)N(C=O)Cc1cnc(C)nc1N)SC(C)=O (centres unmarked) [NCGC00319022-01] | – | – | – | – | – | – | – | – | – | – | > 10 µM | > 10 µM | > 20 µM | > 20 µM | > 20 µM | > 20 µM | > 20 µM | > 20 µM | > 20 µM | > 20 µM | – |
| C=CC(C)(O)CCC=C(C)CCC=C(C)C (centres unmarked) [NCGC00344526-01] | – | – | – | – | – | – | – | – | – | – | > 10 µM | > 10 µM | > 20 µM | > 20 µM | > 20 µM | > 20 µM | > 20 µM | 10.2751 µM | > 20 µM | > 20 µM | – |
| CC1(C)[C@H](C=C(Cl)Cl)[C@@H]1C(=O)OCc1c(F)c(F)cc(F)c1F [NCGC00344542-01] | – | – | – | – | – | – | – | – | – | – | > 10 µM | > 10 µM | > 20 µM | > 20 µM | > 20 µM | > 20 µM | > 20 µM | > 20 µM | > 20 µM | > 20 µM | – |
